Data: patent publication US20260242394A1, “USP2 INHIBITORS AND METHODS OF USING THE SAME FOR THE TREATMENT OF DISEASES” (ICAHN SCHOOL OF MEDICINE AT MOUNT SINAI, priority 2023, published 2026)

Tests used:
[1] = tested on: P53 and P21 protein levels in H460 and A375 cells; assay: Immunoblotting of p53 and p21 protein levels in H460 and A375 cells; assay type: cell-based; settings: FIGS. 12-13
Experimental: Example 220. (FIG. 12) Screening of selected USP2 inhibitors in H460 cells using immunoblotting experiments. The effect of selected USP2 inhibitors (10 μM, 48 h treatment time) on modulating the protein levels of p53 and p21 in H460 cells. Example 221. (FIG. 13) Screening of selected USP2 inhibitors in A375 cells using immunoblotting experiments. The effect of selected USP2 inhibitors with indicated concentration after indicated treatment time on modulating the protein levels of p53 and p21 in A375 cells. Whole cell extracts were prepared with Flag lysis buffer (50 mM Tris-HCl, pH 8.0, 137 mM NaCl, 1 mM NaF, 1 mM NaVO3, 1% Triton X-100, 0.2% sarkosyl, 0.5 mM DTT, 0.5 mM PMSF and 10% glycerol) containing fresh-added protease inhibitors. For cytosolic and nuclear fractions, the cell pellet was firstly incubated with Harvest buffer (10 mM Hepes (pH 8.0), 50 mM NaCl, 0.5 M sucrose, 0.1 mM EDTA, and 0.25% Triton X-100) containing fresh-added protease inhibitors for 5 min on ice followed by centrifugation @120 g for 10 min. The supernatant was cytosolic fraction. After wash twice with buffer A (10 mM Hepes (pH 8.0), 10 mM KCl, 0.1 mM EDTA, and 0.1 mM EGTA), nuclear pellet was lyzed with BC100 (50 mM Tris-HCl, pH 8.0, 100 mM NaCl, 0.2% Triton X-100, and 10% glycerol) containing fresh-added protease inhibitors for 30 min on ice to get the nuclear fraction. Protein concentration was measured with the protein assay dye reagent (Bio-Rad, Cat #5000006) as manufacturer's user guide. 20-60 μg total proteins were loaded to and separated in SDS-PAGE precast gels, then transferred to nitrocellulose membrane. After incubation with primary antibodies for overnight at 4° C., HRP-conjugated secondary antibodies were used, and western blot signals were detected on autoradiographic films after incubating with ECL substrate.

H460 and A375 cells = assay: Cell viability assays in H460 and A375 cells; assay type: cell-based; settings: FIGS. 9-11
Experimental: Example 217. (FIG. 9) Screening of selected USP2 inhibitors using cell viability assays. H460 cells were treated with […] of indicated compounds for 48 h, cell viabilities were indicated by the images of cell morphology. Example 218. (FIG. 10) Screening of selected USP2 inhibitors using cell viability assays. A375 cells were treated with indicated concentration of indicated compounds for 48 h, cell viabilities were indicated by the images of cell morphology. Example 219. (FIG. 11) GI50 determination of selected compounds in A375 cells after 48 hours treatment. 0.3 million of H460 cells were seeded in 6-well plate. Next day, cells were treated with 10 uM of drugs for 48 h. DMSO served as negative control. Images of cell morphology were obtained with Olympus IX51 microscope, indicating the cell viability upon treatment.

USP2 = biological target: T1, USP2 (Homo sapiens, UniProt O75604); assay: biochemical
T1 sequence (O75604 259-605 limits assumed): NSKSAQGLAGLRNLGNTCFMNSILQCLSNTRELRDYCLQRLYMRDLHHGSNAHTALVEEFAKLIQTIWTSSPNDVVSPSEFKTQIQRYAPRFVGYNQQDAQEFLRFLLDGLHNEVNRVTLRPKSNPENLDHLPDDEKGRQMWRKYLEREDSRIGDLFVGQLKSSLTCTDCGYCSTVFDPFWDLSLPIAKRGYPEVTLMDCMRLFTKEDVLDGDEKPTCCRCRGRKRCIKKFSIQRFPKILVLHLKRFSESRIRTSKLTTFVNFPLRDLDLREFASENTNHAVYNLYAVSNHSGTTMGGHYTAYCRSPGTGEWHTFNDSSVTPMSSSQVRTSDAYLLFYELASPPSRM
Experimental: (FIG. 4) IC50 determination of selected USP2 inhibitors using USP2 enzymatic activity assays.
The USP2 (E-504-050, R & D Systems) and SARS-CoV-2 PLpro (100735, BPS Bioscience) deubiquitinase activity was determined with the DUB Activity Assay Kit (701490, Cayman), slightly modified based on the manufacturer's instructions. Briefly, the inhibitors were diluted as indicated with 40 μL of 1×DUB assay buffer, followed by adding 5 μL of DUB proteins. The plate was covered and incubated with the DUB-inhibitor mix at 37° C. for 30 minutes. Then, the plate cover was removed, and the reactions were initiated by quickly adding 5 μL of Ubiquitin-AMC to all wells being used. The fluorescence was read in an Infinite M1000 microplate reader (Tecan), with an excitation wavelength of 360 nm and emission wavelength of 460 nm. The DUB activity was calculated using the formulation provided by the kit.

[2] = tested on: ACE2 and cyclin D1 protein levels in HepG2 cells; assay: Immunoblotting of ACE2 and cyclin D1 protein levels in HepG2 cells
Experimental: (FIG. 5) Screening of selected USP2 inhibitors in HepG2 cells using immunoblotting experiments. (a,b) The effect of selected USP2 inhibitors (5 M) on modulating the protein levels of ACE2 and cyclin D1 in HepG2 cells. […] (d) The effect of selected USP2 inhibitors (1 and 5 μM) on modulating the protein levels of ACE2 and cyclin D1 in HepG2 cells. (e-f) The effect of selected USP2 inhibitors (5 M) on modulating the protein levels of ACE2 and cyclin D1 in HepG2 cells.
In brief, cells were lysed in protease and phosphatase inhibitor-contained EBC buffer (50 mM Tris-HCl, pH 7.4; 120 mM NaCl; 0.5% NP-40). Protein concentrations were determined, and an equal amount of protein samples were harvested, followed by adding 5×SDS loading buffer (312 mM Tris-HCl, 10% SDS, 25 mM P-mercaptoethanol, 50% glycerol, and 0.05% bromophenol blue) and boiling for 10 min. SDS-PAGE electrophoresis, wet electroblotting, milk blocking, primary and secondary antibody incubation, and ECL development were conducted sequentially.

In vivo mouse PK studies = settings: plasma, po, 10 mg/kg
Experimental: Example 222. (FIG. 14) PK results of selected compounds. (a) Plasma concentrations of MS102 and ML346 over 24 h after i.p. injection at 50 mg/kg dose. (b) Plasma concentrations of MS102 over 24 h using different administration routes: […]. (50 mg/kg) by. (c) Plasma concentrations of […]161-180 and XH153-182 over 8 h at 5 mg/kg dose by i.p. injection. (d) Plasma concentrations of XH161-172 over 24 h using different administration routes: […]) Plasma concentrations of XH161-180 over 24 h using different administration routes: […]. (10 mg/kg). Pharmacokinetic studies for ML364, MS102, MS1172, MS1180 and XH153-182 were performed by Sai Life Sciences Limited (India). Experiments were design with 3 mice/time point/compound. Animals were administered intraperitoneally, intravenously as slow bolus injection through tail vein, or through oral route with solution formulation of indicated compound at indicated dose. […] Blood samples (approximately 60 μL) were collected under light isoflurane anesthesia (Surgivet®) from a set of three mice at different time points. Immediately after blood collection, plasma was harvested by centrifugation at 4000 rpm, 10 min at 4° C., and samples were stored at -70±10° C. until bioanalysis. All samples were processed for analysis by protein precipitation method and analyzed with the fit-for-purpose LC-MS/MS method (LLOQ=1.01 ng/mL). […]

Structure (SMILES) | tumor suppressors P53 and P21 protein levels [1] | antiproliferation effect (H460 and A375 cells) | IC50 (USP2) | ACE2 protein level [2] | bioavailability (In vivo mouse PK studies)
Cc1ccc(S(=O)(=O)Nc2cc(F)ccc2C(=O)Nc2nccs2)cc1 [XH153-182, 4-fluoro-2-((4-methylphenyl)sulfonamido)-N-(thiazol-2-yl)benzamide] | elevating | antiproliferation effect |  |  | 
Cc1ccc(S(=O)(=O)Nc2ccc(C(F)(F)F)cc2C(=O)Nc2nc(-c3ccc(Br)cc3)cs2)cc1 [XH161-102 (MS102), N-(4-(4-bromophenyl)thiazol-2-yl)-2-((4-methylphenyl)sulfonamido)-5-(trifluoromethyl)benzamide] |  |  | 5 µM | dose-dependent reduce | 
O=C(Nc1nc(-c2ccc(Br)cc2)cs1)c1ccc(F)cc1NC(=O)C(F)(F)F [XH188-135p2, N-(4-(4-Bromophenyl)thiazol-2-yl)-4-fluoro-2-(2,2,2-trifluoroacetamido)benzamide] | elevating | antiproliferation effect |  |  | 
O=C(Nc1nc(-c2ccc(Br)cc2)cs1)c1ccc(F)cc1NS(=O)(=O)C1CCCCC1 [MS1180, N-(4-(4-bromophenyl)thiazol-2-yl)-2-(cyclohexanesulfonamido)-4-fluorobenzamide] | elevating | antiproliferation effect |  |  | 95%
O=c1c2ccc(F)cc2nc(C(F)(F)F)n1-c1nc(-c2ccc(Br)cc2)cs1 [XH188-135p1, 3-(4-(4-Bromophenyl)thiazol-2-yl)-7-fluoro-2-(trifluoromethyl)quinazolin-4(3H)-one] | elevating | antiproliferation effect |  |  | 
CC(C)S(=O)(=O)Nc1cc(F)ccc1C(=O)Nc1nc(-c2ccc(Br)cc2)cs1 [MS1172, N-(4-(4-bromophenyl)thiazol-2-yl)-4-fluoro-2-((1-methylethyl)sulfonamido)benzamide] | elevating | antiproliferation effect |  |  | 100%
O=C(Nc1nc(-c2ccc(F)cc2)cs1)c1ccc(F)cc1NC(=O)C(F)(F)F [XH198-68p2, 4-Fluoro-N-(4-(4-fluorophenyl)thiazol-2-yl)-2-(2,2,2-trifluoroacetamido)benzamide] | elevating | antiproliferation effect |  |  | 
O=C(Nc1cc(F)ccc1C(=O)Nc1nc(-c2ccc(F)cc2)cs1)c1ccc(C(F)(F)F)cc1 [XH208-93p2, 4-Fluoro-N-(4-(4-fluorophenyl)thiazol-2-yl)-2-(4-(trifluoromethyl)benzamido)benzamide] | elevating | antiproliferation effect |  |  | 
